Values quoted from earlier work as cited in patent publication US5969017A, “Methods of treating or preventing cardiac arrhythmia” (Merck & Co., Inc., priority 1997, dated 1999).

Columns and labels:
[1] = tested on: IKr; conditions: background; cited from earlier work
[2] = tested on: K+ currents; conditions: 0.4 mM as printed; cited from earlier work
[3] = tested on: L-type Ca2+ channels; conditions: Kass 1982; cited from earlier work
[4] = tested on: INa; conditions: background; cited from earlier work
[5] = tested on: ICa; conditions: background; cited from earlier work
[6] = target: T1, IKs (Cavia porcellus, UniProt O70344); conditions: Balser et al., guinea pig ventricular myocytes; cited from earlier work
T1 construct: Guinea pig ventricular myocytes were isolated; endogenous in cells; host or cells: isolated guinea pig ventricular myocytes
T1 sequence (O70344 whole entry): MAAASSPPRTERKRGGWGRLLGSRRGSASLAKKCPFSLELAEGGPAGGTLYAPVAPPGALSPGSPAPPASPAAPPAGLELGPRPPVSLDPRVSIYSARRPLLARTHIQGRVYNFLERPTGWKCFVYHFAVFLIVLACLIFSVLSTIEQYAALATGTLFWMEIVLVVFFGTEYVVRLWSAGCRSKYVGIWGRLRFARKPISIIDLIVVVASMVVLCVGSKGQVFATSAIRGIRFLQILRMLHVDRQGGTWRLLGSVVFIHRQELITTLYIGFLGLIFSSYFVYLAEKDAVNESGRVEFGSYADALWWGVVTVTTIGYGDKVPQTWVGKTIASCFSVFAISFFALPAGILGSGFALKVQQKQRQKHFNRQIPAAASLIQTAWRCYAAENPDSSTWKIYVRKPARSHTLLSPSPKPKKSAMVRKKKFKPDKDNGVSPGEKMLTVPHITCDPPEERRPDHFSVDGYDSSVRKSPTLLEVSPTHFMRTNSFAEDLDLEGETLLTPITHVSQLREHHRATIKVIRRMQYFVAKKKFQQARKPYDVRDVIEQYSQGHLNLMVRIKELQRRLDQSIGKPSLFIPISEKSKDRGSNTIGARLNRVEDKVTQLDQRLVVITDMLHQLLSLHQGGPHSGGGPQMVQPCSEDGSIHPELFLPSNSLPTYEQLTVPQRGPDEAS
T1 sequence (Q60409 whole entry partner): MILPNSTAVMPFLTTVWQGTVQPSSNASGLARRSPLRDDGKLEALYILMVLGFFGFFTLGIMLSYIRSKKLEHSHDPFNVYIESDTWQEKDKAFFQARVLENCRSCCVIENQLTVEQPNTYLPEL

## CC(C)NC[C@@H](O)c1ccc(NS(C)(=O)=O)cc1 [d-sotalol]
[1]
  block of IKr (in words): predominantly, if not exclusively, block IKr

## CN(CCOc1ccc(NS(C)(=O)=O)cc1)CCc1ccc(NS(C)(=O)=O)cc1 [dofetilide]
[1]
  block of IKr (in words): predominantly, if not exclusively, block IKr

## COC(=O)C1=C(C)NC(C)=C(C(=O)OCC(C)C)C1c1ccccc1[N+](=O)[O-] (centres unmarked) [Nisoldipine]
[2]
  effect on K+ currents (in words): no effect on K^+ currents
[3]
  block of L-type Ca2+ channels (in words): relatively specific blocker

## CCCCc1oc2ccccc2c1C(=O)c1cc(I)c(OCCN(CC)CC)c(I)c1 [amiodarone]
[4]
  block of INa (in words): blocks INa
[5]
  block of ICa (in words): blocks INa and ICa
[6]
  block of IKs (in words): blocker of IKs

## CS(=O)(=O)Nc1ccc2c(c1)C(O)CC1(CCN(C3CCc4cc(C#N)ccc4C3)CC1)O2 (single isomer, unassigned) [MK-499, methanesulfonamide--N--[1'-6-cyano-1,2,3,4-tetrahydro-2-naphthalenyl)-3,4-dihydro-4-hydroxyspiro[2H-1-benzopyran-2,4'-piperidin]-6yl], (+)-, monochloride]
[1]
  block of IKr (in words): predominantly, if not exclusively, block IKr
